Measurements as given in patent publication US8937067B2, “Activators of human pyruvate kinase” (The United States of America, as represented by the …, priority 2008, dated 2015).
Several values for one entry are separate records, joined by “and”; a condition that tells them apart may be missing. Identical values can stand only once. Like-named read-outs stand apart in the source and are kept apart here.

Legend:
hPK-M2 [1] = molecular target: T1, hPK-M2 (Homo sapiens, UniProt P14618); assay: Luminescent pyruvate kinase-luciferase coupled assay (KinaseGlo); assay type: biochemical; settings: for activation at 57 µM: read-out: hPK, M2 Max. Res.; for maximum response / Emax: relative to activation by FBP; for Emax: read-out: maximum response
Method: Luminescent Pyruvate Kinase-Luciferase Coupled Assay.
Production of a luminescent signal based on the generation of ATP by pyruvate kinase was determined by using the ATP-dependent enzyme firefly luciferase. Three μL of substrate mix (at r.t.) in assay buffer (50 mM imidazole pH 7.2, 50 mM KCl, 7 mM MgCl2, 0.01% tween 20, 0.05% BSA) was dispensed into Kalypsys white solid bottom 1,536 well microtiter plates using a bottle-valve solenoid-based dispenser (Kalypsys). The final concentrations of substrates in the assay were 0.1 mM ADP and 0.5 mM PEP. […] Microtiter plates were incubated at r.t. for 1 hour and 2 uL of luciferase detection mix (Kinase-Glo, Promega at 4° C. protected from light) was added and luminescence was read with a ViewLux (Perkin Elmer) using a 5 second exposure/plate. Data was normalized for AC50 values to control columns containing uninhibited enzyme (n), and AC100 inhibition (i) according the following equation: Activation (%)=[(c−n)/(n−i)]*100 where c=compound, n=DMSO neutral, i=no enzyme control. […] Monitoring of activation was accomplished using enzyme at 3× the final concentration.

hPK-M2 [2] = molecular target: T1, hPK-M2; assay: Fluorescent pyruvate kinase-lactate dehydrogenase (LDH) coupled secondary assay; assay type: biochemical; settings: for AC50: read-out: AC50, LDH assay; for Emax: read-out: maximum response, LDH assay
Method: Fluorescent Pyruvate Kinase-Lactate Dehydrogenase Coupled Secondary Assay.
Plates were immediately placed in ViewLux (Perkin Elmer) and NADH fluorescence was determined at 30 second exposure intervals for between 3 and 6 minutes. Data were normalized to the uninhibited and EC100 activation using known activators such as fructose-1,6-bis-phosphate. […] Data was collected on the Perkin Elmer Viewlux.

[3] = KinaseGlo, % activation at 57 μM of compound
[4] = luciferase-coupled assay, read-out: AC50
[5] = luminescent pyruvate kinase-luciferase coupled assay (KinaseGlo), tables, read-out: hPK, M2 AC50

T1 sequence (P14618 whole entry): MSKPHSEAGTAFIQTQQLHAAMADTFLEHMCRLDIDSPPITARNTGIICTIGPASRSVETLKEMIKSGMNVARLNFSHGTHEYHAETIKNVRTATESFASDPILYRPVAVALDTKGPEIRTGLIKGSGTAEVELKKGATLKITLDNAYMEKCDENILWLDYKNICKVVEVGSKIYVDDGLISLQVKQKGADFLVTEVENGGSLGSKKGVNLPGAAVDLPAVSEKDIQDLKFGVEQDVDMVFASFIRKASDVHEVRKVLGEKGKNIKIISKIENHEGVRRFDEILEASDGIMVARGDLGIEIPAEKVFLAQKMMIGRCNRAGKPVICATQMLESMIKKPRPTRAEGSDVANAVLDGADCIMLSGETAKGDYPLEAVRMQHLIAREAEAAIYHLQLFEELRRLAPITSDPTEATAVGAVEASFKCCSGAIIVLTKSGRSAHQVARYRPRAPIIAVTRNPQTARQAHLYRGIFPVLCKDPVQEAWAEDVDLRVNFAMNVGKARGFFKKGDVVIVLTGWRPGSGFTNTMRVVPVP

Row | Structure (SMILES) | activation at 57 µM (hPK-M2 [1]; [3]) [%] | AC50 (hPK-M2 [1]; [5]) [µM] | Emax (hPK-M2 [2]) [%] | AC50 (hPK-M2 [2]) [µM] | further results
1 | O=S(=O)(c1cccc(F)c1)N1CCN(S(=O)(=O)c2ccc3c(c2)OCCO3)CC1 [Compound 7, 1-(2,3-dihydrobenzo[b][1,4]dioxin-6-ylsulfonyl)-4-(3-fluorophenylsulfonyl)piperazine] | 107 ± 8.8 | 0.316 | 259 | – | Emax (hPK-M2 [1]; luciferase-coupled assay): 96.3%
2 | COc1ccc(S(=O)(=O)N2CCN(S(=O)(=O)c3c(F)cccc3F)CC2)cc1 [Compound 21, 1-(2,6-difluorophenylsulfonyl)-4-(4-methoxyphenylsulfonyl)piperazine] | 102 ± 9.2 | 0.09 | 124 ± 30 | 0.211 ± 0.05 | –
3 | O=S(=O)(N[C@H]1CC[C@H](NS(=O)(=O)c2c(F)cccc2F)CC1)c1ccc2c(c1)OCCO2 [Compound 37, N-((trans)-4-(2,6-difluorophenylsulfonamido)cyclohexyl)-2,3-dihydrobenzo[b][1,4]dioxine-6-sulfonamide] | 90.8 ± 12.4 | – | 56 ± 11 | 7 ± 1.5 | AC50 (hPK-M2 [1]; [4]): 2.11 ± 0.64 µM
4 | O=S(=O)(N[C@H]1CC[C@@H](NS(=O)(=O)c2c(F)cccc2F)CC1)c1ccc2c(c1)OCCO2 [Compound 38, N-((cis)-4-(2,6-difluorophenylsulfonamido)cyclohexyl)-2,3-dihydrobenzo[b][1,4]dioxine-6-sulfonamide] | 60.7 ± 5.6 | > 35 | 56 ± 11 | 7 ± 1.5 | AC50 (hPK-M2 [1]; [4]): 37.1 ± 5 µM
5 | O=C1CN(S(=O)(=O)c2c(F)cccc2F)CCN1S(=O)(=O)c1ccc2c(c1)OCCO2 [Compound 49, 4-(2,6-difluorophenylsulfonyl)-1-(2,3-dihydrobenzo[b][1,4]dioxin-6-ylsulfonyl)piperazin-2-one] | 105 ± 9 | 0.114 ± 0.02 | 87 ± 37 | 0.44 ± 0.24 | –
6 | O=C1CN(S(=O)(=O)c2ccc3c(c2)OCCO3)CCN1S(=O)(=O)c1c(F)cccc1F [Compound 50, 1-(2,6-difluorophenylsulfonyl)-4-(2,3-dihydrobenzo[b][1,4]dioxin-6-ylsulfonyl)piperazin-2-one] | 96.9 ± 5.6 | 2.42 ± 0.16 | 82 | 3.16 | –
7 | CC(C)c1cc2c(s1)c1cnn(Cc3ccccc3F)c(=O)c1n2C [Compound 69, 2-Isopropyl-4-methyl-6-[(2-fluorophenyl)methyl]-4H-thieno[3,2-b]pyrrole[3,2-d]pyridazinone] | 106 ± 6.2 | 0.142 ± 0.02 | 302 | 1.8 | Emax (hPK-M2 [1]; luciferase-coupled assay): 100%
8 | Cn1c2cc([S+](C)[O-])sc2c2cnn(Cc3ccccc3F)c(=O)c21 (stereo not shown) [Compound 73, 2-Methylsulfinyl-4-methyl-6-[(2-fluorophenyl)methyl]-4H-thieno[3,2-b]pyrrole[3,2-d]pyridazinone] | 97.9 ± 3.1 | 0.025 ± 0.01 | 211 | 0.19 ± 0.01 | –
9 | Cn1c2cc(C=O)sc2c2cnn(Cc3ccccc3F)c(=O)c21 [Compound 84, 2-Formyl-4-methyl-6-[(2-fluorophenyl)methyl]-4H-thieno[3,2-b]pyrrole[3,2-d]pyridazinone] | 99.8 ± 6.5 | 0.016 ± 0.01 | 239 | 0.1 ± 0.01 | –
10 | Cn1c2cc(CO)sc2c2cnn(Cc3ccccc3F)c(=O)c21 [Compound 85, 2-Hydroxylmethyl-4-methyl-6-[(2-fluorophenyl)methyl]-4H-thieno[3,2-b]pyrrole[3,2-d]pyridazinone] | 103 ± 7.2 | 0.048 ± 0.01 | 155 | 0.22 ± 0.03 | –
11 | CC(=O)c1cc2c(s1)c1cnn(Cc3ccccc3F)c(=O)c1n2C [Compound 87, 2-Acetyl-4-methyl-6-[(2-fluorophenyl)methyl]-4H-thieno[3,2-b]pyrrole[3,2-d]pyridazinone] | 108 ± 4.9 | 0.011 | 200 | 0.15 ± 0.03 | –
12 | Cc1cc2c(s1)c1cnn(Cc3ccc(Cl)cc3)c(=O)c1n2C [Compound 108, 2,4-Methyl-6-[(4-chlorophenyl)methyl]-4H-thieno[3,2-b]pyrrole[3,2-d]pyridazinone] | 90.6 ± 3.3 | 0.326 ± 0.09 | 191 | 1.65 | –
13 | Cc1cc2c(s1)c1cnn(Cc3ccc(C(F)(F)F)cc3)c(=O)c1n2C [Compound 110, 2,4-Methyl-6-[(4-trifluoromethylphenyl)methyl]-4H-thieno[3,2-b]pyrrole[3,2-d]pyridazinone] | 56.1 ± 5.4 | 0.553 ± 0.13 | 77 | 2.2 | –
14 | COc1ccc(Cn2ncc3c4sc(C)cc4n(C)c3c2=O)cc1 [Compound 111, 2,4-Methyl-6-[(4-methoxyphenyl)methyl]-4H-thieno[3,2-b]pyrrole[3,2-d]pyridazinone] | 96.2 ± 2.5 | 0.037 ± 0.01 | 258 | 0.23 ± 0.04 | –
15 | Cc1cc2c(s1)c1cnn(Cc3ccc(F)cc3F)c(=O)c1n2C [Compound 112, 2,4-Methyl-6-[(2,4-difluorophenyl)methyl]-4H-thieno[3,2-b]pyrrole[3,2-d]pyridazinone] | – | 0.044 ± 0.01 | 217 | 0.17 ± 0.03 | –
16 | Cc1cc2c(s1)c1cnn(Cc3c(F)cccc3F)c(=O)c1n2C [Compound 113, 2,4-Methyl-6-[(2,6-difluorophenyl)methyl]-4H-thieno[3,2-b]pyrrole[3,2-d]pyridazinone] | 93.8 ± 5 | 0.049 ± 0.02 | 240 | 0.14 ± 0.01 | –
17 | Cc1cc2c(s1)c1cnn(Cc3ccc(C(F)(F)F)cc3F)c(=O)c1n2C [Compound 120, 2,4-Methyl-6-[(2-fluoro-4-trifluoromethylphenyl)methyl]-4H-thieno[3,2-b]pyrrole[3,2-d]pyridazinone] | 59.3 ± 18 | – | < 80 | – | Emax (hPK-M2 [1]; luciferase-coupled assay): < 80%
18 | COc1ccc(Cn2ncc3c4sc(C)cc4n(C)c3c2=O)cc1F [Compound 121, 2,4-Methyl-6-[(3-fluoro-4-methoxyphenyl)methyl]-4H-thieno[3,2-b]pyrrole[3,2-d]pyridazinone] | – | – | – | 1 | hPK, M2 Max. Res. (hPK-M2 [1]; [3]): 68.2 ± 7.9%; AC50 (hPK-M2 [1]; [4]): 0.225 ± 0.097 µM; maximum response (hPK-M2 [1]; luciferase-coupled assay): 68.2%; maximum response, LDH assay (hPK-M2 [2]): 135±20%
19 | Nc1cc(S(=O)(=O)N2CCN(S(=O)(=O)c3ccc4c(c3)OCCO4)CC2)ccn1 [Compound 146] | – | 1.6 | – | – | hPK, M2 Max. Res. (hPK-M2 [1]; [3]): 81.00%
20 | Cn1c2cc([S+](C)[O-])sc2c2cnn(Cc3cccc(N)c3)c(=O)c21 (stereo not shown) [Compound 149] | – | – | – | – | activation at 57 µM (hPK-M2 [1]): 91%
21 | O=C(COP(=O)(O)O)[C@@H](O)[C@H](O)[C@H](O)COP(=O)(O)O [FBP, fructose-1,6-bis-phosphate, reference compound] | – | – | – | – | % Activation by FBP (hPK-M2 [1]; average, 100% is approximately a 2-fold increase over basal signal): 100%

Continued, in another order:

Row | activation at 57 µM (hPK-M2 [1]; [3]) [%] | AC50 (hPK-M2 [1]; [5]) [µM] | Emax (hPK-M2 [2]) [%] | Structure (SMILES) | AC50 (hPK-M2 [2]) [µM] | further results
22 | 92.2 ± 12 | 0.111 | 224 | COc1ccc(S(=O)(=O)N2CCN(S(=O)(=O)c3ccc4c(c3)OCCO4)CC2)cc1 [Compound 1, 1-(2,3-dihydrobenzo[b][1,4]dioxin-6-ylsulfonyl)-4-(4-methoxyphenylsulfonyl)piperazine] | 0.3 ± 0.1 | AC50 (hPK-M2 [1]; [4]): 0.063 ± 0.02 µM; maximum response (hPK-M2 [1]; luciferase-coupled assay): 122.1% and 92.2%
23 | 74.3 ± 9.8 | 0.066 | 85 ± 8 | O=S(=O)(c1c(F)cccc1F)N1CCN(S(=O)(=O)c2c(F)cccc2F)CC1 [Compound 22, 1,4-bis(2,6-difluorophenylsulfonyl)piperazine] | 0.172 ± 0.029 | –
24 | 100 ± 6.6 | – | 109 ± 11 | O=S(=O)(c1ccc2c(c1)OCCCO2)N1CCN(S(=O)(=O)c2c(F)cccc2F)CC1 [Compound 23, 1-(2,6-difluorophenylsulfonyl)-4-(3,4-dihydro-2,1-benzo[b][1,4]dioxepin-7-ylsulfonyl)piperazine] | ~0.5 | AC50 (hPK-M2 [1]; [4]): 0.103 µM
25 | 138 ± 11.3 | 0.066 | 161 ± 29 | O=S(=O)(c1ccc2ccccc2c1)N1CCN(S(=O)(=O)c2c(F)cccc2F)CC1 [Compound 26, 1-(2,6-difluorophenylsulfonyl)-4-(naphthalen-2-ylsulfonyl)piperazine] | 0.22 ± 0.053 | –
26 | – | – | < 80 | Cc1cc2c(s1)c1c(C)nn(Cc3ccccc3F)c(=O)c1n2C [Compound 92, 2,4,8-Methyl-6-[(2-fluorophenyl)methyl]-4H-thieno[3,2-b]pyrrole[3,241]-pyridazinone] | – | Emax (hPK-M2 [1]; luciferase-coupled assay): < 80%
27 | – | – | < 80 | Cn1c2ccsc2c2ncn(Cc3ccccc3F)c(=O)c21 [Compound 100, 4-Methyl-6-[(2-fluorophenyl)methyl]-4H-thieno[3,2-b]pyrrole[3,2-d]pyrimidinone] | – | Emax (hPK-M2 [1]; luciferase-coupled assay): < 80%
28 | – | 0.29 | – | CNc1cccc(S(=O)(=O)N2CCN(S(=O)(=O)c3ccc4c(c3)OCCO4)CC2)c1 [Compound 142] | – | hPK, M2 Max. Res. (hPK-M2 [1]; [3]): 67.00%
29 | 89 | 0.092 | – | COc1cccc(Cn2ncc3c4sc([S+](C)[O-])cc4n(C)c3c2=O)c1 (stereo not shown) [Compound 148] | – | –
